{"source": "ChEMBL document CHEMBL4613325", "about": "“Design of Development Candidate eFT226, a First in Class Inhibitor of Eukaryotic Initiation Factor 4A RNA Helicase” (J Med Chem, 2020)", "key": {"[1]": {"assay": "Volume of distribution at steady state in Sprague-Dawley rat at 1 mg, iv administered as single dose measured after 0.083 to 24 hrs by LC-MS analysis", "assay_type": "ADME, organism-based", "conditions": "in vivo, read-out: Vdss"}, "[2]": {"assay": "AUC in iv dosed rat", "assay_type": "ADME, organism-based", "conditions": "in vivo"}, "[3]": {"molecular_target": "T1, Eukaryotic initiation factor 4A-I (Homo sapiens, UniProt P60842)", "T1 sequence (P60842 whole entry)": "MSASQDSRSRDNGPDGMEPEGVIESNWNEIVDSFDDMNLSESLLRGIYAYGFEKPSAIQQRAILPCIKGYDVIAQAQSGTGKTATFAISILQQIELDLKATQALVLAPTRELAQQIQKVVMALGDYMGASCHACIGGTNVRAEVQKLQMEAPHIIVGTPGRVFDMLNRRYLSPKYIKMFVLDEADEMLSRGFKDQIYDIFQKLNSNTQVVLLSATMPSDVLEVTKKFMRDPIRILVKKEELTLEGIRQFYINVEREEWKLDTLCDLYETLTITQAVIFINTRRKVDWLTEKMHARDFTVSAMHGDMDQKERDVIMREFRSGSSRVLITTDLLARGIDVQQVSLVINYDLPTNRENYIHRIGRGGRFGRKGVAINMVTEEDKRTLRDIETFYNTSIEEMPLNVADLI", "assay": "Inhibition of eIF4A1 in human MDA-MB-231 cells assessed as inhibition of cellular-translation incubated for 4 hrs by specific tandem sequence motif repeat AGAGAG in 5'- UTR containing luciferase reporter gene assay", "assay_type": "cell-based"}, "[4]": {"assay": "Toxicity in athymic nude ((NCr) nu/nu mouse xenografted with human MDA-MB-231 cells assessed as induction of body weight loss at 1 mg/kg, iv treated once weekly for 2 weeks relative to control", "assay_type": "organism-based", "conditions": "in vivo, 336 h"}, "[5]": {"molecular_target": "T1, Eukaryotic initiation factor 4A-I", "assay": "Inhibition of eIF4A1 in human MDA-MB-231 cells assessed as inhibition of cellular-translation incubated for 4 hrs by specific tandem sequence motif repeat CCGCCG in 5'- UTR containing luciferase reporter gene assay", "assay_type": "cell-based"}, "[6]": {"assay": "Half life in mouse at 1 mg, iv administered as single dose measured after 0.083 to 24 hrs by LC-MS analysis", "assay_type": "ADME, organism-based", "conditions": "in vivo"}, "[7]": {"assay": "Half life in monkey at 1 mg, iv administered as single dose measured after 0.083 to 24 hrs by LC-MS analysis", "assay_type": "ADME, organism-based, Macaca mulatta", "conditions": "rhesus monkey, in vivo"}, "[8]": {"assay": "Inhibition of eIF4A1 F163L mutant in human HAP1 cells assessed as reduction in cell proliferation incubated for 72 hrs by CellTiter-Glo reagent based assay", "conditions": "HAP1, 72 h"}, "[9]": {"assay": "Protein binding in rat plasma", "assay_type": "ADME, cell-free", "conditions": "read-out: PPB (converted)"}, "[10]": {"assay": "Clearance in mouse at 1 mg, iv administered as single dose measured after 0.083 to 24 hrs by LC-MS analysis", "assay_type": "ADME, organism-based", "conditions": "in vivo"}, "[11]": {"assay": "Clearance in dog at 1 mg, iv administered as single dose measured after 0.083 to 24 hrs by LC-MS analysis", "assay_type": "ADME, organism-based, Canis lupus familiaris", "conditions": "in vivo"}, "[12]": {"assay": "Clearance in Sprague-Dawley rat at 1 mg, iv administered as single dose measured after 0.083 to 24 hrs by LC-MS analysis", "assay_type": "ADME, organism-based", "conditions": "in vivo"}, "MDA-MB-231 [13]": {"tested_on": "MDA-MB-231", "assay": "Antiproliferative activity against human MDA-MB-231 cells assessed as reduction in cell proliferation incubated for 72 hrs by CellTiter-Glo reagent based assay", "assay_type": "functional", "conditions": "MDA-MB-231, 72 h"}, "[14]": {"assay": "Volume of distribution at steady state in mouse at 1 mg, iv administered as single dose measured after 0.083 to 24 hrs by LC-MS analysis", "assay_type": "ADME, organism-based", "conditions": "in vivo, read-out: Vdss"}, "[15]": {"assay": "Protein binding in mouse plasma", "assay_type": "ADME, cell-free", "conditions": "read-out: PPB (converted)"}, "[16]": {"assay": "Half life in Sprague-Dawley rat at 1 mg, iv administered as single dose measured after 0.083 to 24 hrs by LC-MS analysis", "assay_type": "ADME, organism-based", "conditions": "in vivo"}, "[17]": {"assay": "Protein binding in monkey plasma", "assay_type": "ADME, cell-free, Macaca mulatta", "conditions": "rhesus monkey, read-out: PPB (converted)"}, "[18]": {"assay": "Volume of distribution at steady state in dog at 1 mg, iv administered as single dose measured after 0.083 to 24 hrs by LC-MS analysis", "assay_type": "ADME, organism-based, Canis lupus familiaris", "conditions": "in vivo, read-out: Vdss"}, "[19]": {"assay": "Clearance in monkey at 1 mg, iv administered as single dose measured after 0.083 to 24 hrs by LC-MS analysis", "assay_type": "ADME, organism-based, Macaca mulatta", "conditions": "rhesus monkey, in vivo"}, "[20]": {"assay": "Protein binding in human plasma", "assay_type": "ADME, cell-free", "conditions": "read-out: PPB (converted)"}, "MDA-MB-231 [21]": {"tested_on": "MDA-MB-231", "assay": "Antitumor activity against human MDA-MB-231 cells xenografted in athymic nude ((NCr) nu/nu mouse assessed as inhibition of tumor growth at 1 mg/kg, iv treated once weekly for 2 weeks relative to control", "assay_type": "functional", "conditions": "MDA-MB-231, iv, 336 h"}, "[22]": {"assay": "Volume of distribution at steady state in monkey at 1 mg, iv administered as single dose measured after 0.083 to 24 hrs by LC-MS analysis", "assay_type": "ADME, organism-based, Macaca mulatta", "conditions": "rhesus monkey, in vivo, read-out: Vdss"}, "[23]": {"assay": "Protein binding in dog plasma", "assay_type": "ADME, cell-free, Canis lupus familiaris", "conditions": "read-out: PPB (converted)"}, "[24]": {"assay": "Apparent permeability from apical to basolateral side in human Caco2 cells at 10 uM by LC/MS/MS analysis", "conditions": "Caco-2"}, "[25]": {"assay": "Clearance in iv dosed rat", "assay_type": "ADME, organism-based", "conditions": "in vivo"}, "[26]": {"molecular_target": "Voltage-gated inwardly rectifying potassium channel KCNH2 (Homo sapiens, UniProt Q12809)", "sequence (Q12809 whole entry)": "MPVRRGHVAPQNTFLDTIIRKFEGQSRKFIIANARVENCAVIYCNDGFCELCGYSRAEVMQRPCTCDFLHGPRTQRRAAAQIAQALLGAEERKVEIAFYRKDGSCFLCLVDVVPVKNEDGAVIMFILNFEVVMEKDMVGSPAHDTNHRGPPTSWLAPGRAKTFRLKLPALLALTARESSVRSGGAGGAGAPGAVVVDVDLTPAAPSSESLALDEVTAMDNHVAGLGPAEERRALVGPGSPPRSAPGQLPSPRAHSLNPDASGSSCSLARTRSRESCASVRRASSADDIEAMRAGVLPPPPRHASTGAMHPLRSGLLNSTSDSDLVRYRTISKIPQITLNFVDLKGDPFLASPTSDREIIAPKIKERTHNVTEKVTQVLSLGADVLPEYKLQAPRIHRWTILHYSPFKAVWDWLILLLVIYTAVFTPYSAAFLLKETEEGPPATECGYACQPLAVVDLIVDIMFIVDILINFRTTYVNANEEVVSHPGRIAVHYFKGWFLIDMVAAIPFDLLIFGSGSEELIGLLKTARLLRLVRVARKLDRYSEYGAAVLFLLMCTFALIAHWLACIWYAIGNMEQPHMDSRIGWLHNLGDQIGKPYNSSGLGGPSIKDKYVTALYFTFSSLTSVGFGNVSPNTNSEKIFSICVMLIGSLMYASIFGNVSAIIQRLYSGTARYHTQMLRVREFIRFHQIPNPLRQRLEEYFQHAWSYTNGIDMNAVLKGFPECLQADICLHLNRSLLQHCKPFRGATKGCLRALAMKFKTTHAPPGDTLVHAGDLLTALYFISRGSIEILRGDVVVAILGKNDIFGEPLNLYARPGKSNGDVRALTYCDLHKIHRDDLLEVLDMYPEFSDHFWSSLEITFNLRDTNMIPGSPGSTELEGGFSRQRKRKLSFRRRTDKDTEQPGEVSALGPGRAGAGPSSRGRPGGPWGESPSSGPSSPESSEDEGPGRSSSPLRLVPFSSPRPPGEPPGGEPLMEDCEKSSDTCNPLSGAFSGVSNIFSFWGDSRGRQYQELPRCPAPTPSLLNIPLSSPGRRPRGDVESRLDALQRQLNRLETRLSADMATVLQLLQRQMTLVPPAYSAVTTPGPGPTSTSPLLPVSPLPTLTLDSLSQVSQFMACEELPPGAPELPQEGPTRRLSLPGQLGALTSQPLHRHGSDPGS", "assay": "Inhibition of human ERG by patch-clamp assay"}, "[27]": {"assay": "Half life in iv dosed rat", "assay_type": "ADME, organism-based", "conditions": "in vivo"}, "MDA-MB-231 [28]": {"tested_on": "MDA-MB-231", "assay": "Effect on GADPH protein expression in human MDA-MB-231 cells 10 to 100 nM incubated for 24 hrs by Western blot analysis", "assay_type": "ADME, cell-based", "conditions": "mda-mb-231, 24 h"}, "[29]": {"molecular_target": "T1, Eukaryotic initiation factor 4A-I", "assay": "Inhibition of eIF4A1 in human MDA-MB-231 cells assessed as inhibition of cellular-translation incubated for 4 hrs by specific tandem sequence motif repeat CAACAA in 5'- UTR containing luciferase reporter gene assay", "assay_type": "cell-based"}, "[30]": {"molecular_target": "T1, Eukaryotic initiation factor 4A-I", "assay": "Inhibition of eIF4A1 in human MDA-MB-231 cells assessed as inhibition of cellular-translation incubated for 4 hrs by specific tandem sequence motif repeat GGCGGC in 5'- UTR containing luciferase reporter gene assay", "assay_type": "cell-based"}, "[31]": {"assay": "Volume of distribution at steady state in iv dosed rat", "assay_type": "ADME, organism-based", "conditions": "in vivo, read-out: Vdss"}}}
{"smiles": "COc1cc2c(c(OC)n1)[C@]1(O)[C@H](O)[C@H](CN(C)C)[C@@H](c3ccccc3)[C@]1(c1ccc(C#N)cc1)O2", "note": "[ZOTATIFIN]", "values": [{"measurement": "Vd", "setting": "[1]", "result": 13, "unit": "L/kg"}, {"measurement": "AUC", "setting": "[2]", "result": 390, "unit": "ng·h/mL"}, {"measurement": "IC50", "setting": "[3]", "result": 1.5, "unit": "nM"}, {"measurement": "Activity", "setting": "[4]", "result": "Non-Toxic"}, {"measurement": "IC50", "setting": "[5]", "result": 92, "unit": "nM"}, {"measurement": "half-life", "setting": "[6]", "result": 10.9, "unit": "h"}, {"measurement": "half-life", "setting": "[7]", "result": 14.9, "unit": "h"}, {"measurement": "IC50", "setting": "[8]", "result": 371, "unit": "nM"}, {"measurement": "fraction unbound", "setting": "[9]", "result": 0.266}, {"measurement": "clearance", "setting": "[10]", "result": 15.8, "unit": "mL/min/kg"}, {"measurement": "clearance", "setting": "[11]", "result": "< 12.4", "unit": "mL/min/kg"}, {"measurement": "clearance", "setting": "[12]", "result": 48.3, "unit": "mL/min/kg"}, {"measurement": "IC50", "setting": "MDA-MB-231 [13]", "result": 10.6, "unit": "nM"}, {"measurement": "Vd", "setting": "[14]", "result": 12.1, "unit": "L/kg"}, {"measurement": "fraction unbound", "setting": "[15]", "result": 0.252}, {"measurement": "half-life", "setting": "[16]", "result": 4.39, "unit": "h"}, {"measurement": "fraction unbound", "setting": "[17]", "result": 0.365}, {"measurement": "Vd", "setting": "[18]", "result": 17.8, "unit": "L/kg"}, {"measurement": "clearance", "setting": "[19]", "result": 11.7, "unit": "mL/min/kg"}, {"measurement": "fraction unbound", "setting": "[20]", "result": 0.332}, {"measurement": "inhibition in vivo at 1 mg/kg", "setting": "MDA-MB-231 [21]", "result": 122, "unit": "%"}, {"measurement": "Vd", "setting": "[22]", "result": 12.2, "unit": "L/kg"}, {"measurement": "fraction unbound", "setting": "[23]", "result": 0.188}, {"measurement": "Papp A→B at 10 µM", "setting": "[24]", "result": 2.5, "unit": "×10⁻⁶ cm/s"}, {"measurement": "clearance", "setting": "[25]", "result": 48, "unit": "mL/min/kg"}, {"measurement": "IC50", "setting": "[26]", "result": "> 10000", "unit": "nM"}, {"measurement": "half-life", "setting": "[27]", "result": 4.4, "unit": "h"}, {"measurement": "Activity", "setting": "MDA-MB-231 [28]", "result": "Non-Toxic"}, {"measurement": "IC50", "setting": "[29]", "result": 218, "unit": "nM"}, {"measurement": "IC50", "setting": "[30]", "result": 13.8, "unit": "nM"}, {"measurement": "Vd", "setting": "[31]", "result": 13, "unit": "L/kg"}]}
